Measured values: US20260137671A1, “PDK4 as a Cell-Aging Intervention Target and Its Use in Chemotherapy and Anticancer” (Shanghai Institute of Nutrition and Health, Chinese Academy …, priority 2022, published 2026)

Test system: mice implanted with recombinant tissues
Assay: Survival of tumor-bearing mice in time-extended preclinical cohort (bulky disease, size >2,000 mm^3)
Type: in vivo
Settings: PDK4-IN treatment alone versus vehicle
From the text: FIG. 74. Curve of bulky DFS plotted against survival time of implantation with recombinant tissues in mice until animal death attributed to advanced bulky disease development. MS, median survival. P values calculated by two-sided log-rank (Mantel-Cox) tests.
Next, the inventors assessed tumor progression consequence by comparing the survival rate of different animal groups in a time-extended preclinical cohort. During tumor surveillance, bulky disease was considered once the tumor burden became prominent (size >2,000 mm^3).

SMILES: O=C1c2ccccc2C(=O)c2c1cccc2-c1cnn(C2CCNCC2)c1 [PDK4-IN]
- survival benefit as single agent: only marginal survival advantage
